# According to PMC2882989 (Biochemistry, 2010):
# Target: LovK (Caulobacter vibrioides, UniProt A0A0H3C379)
# Assay: competition with BODIPY-ATP, fluorescence anisotropy
# Type: binding
# Conditions: 1 mM ATP in excess; competitive, same site as BODIPY-ATP
compound,measurement,value
Nc1ncnc2c1ncn2[C@@H]1O[C@H](COP(=O)(O)OP(=O)(O)OP(=O)(O)O)[C@@H](O)[C@H]1O [ATP],"competition with BODIPY-ATP, fluorescence anisotropy",BODYPI-ATP is displaced from LovK due to competition for the same binding site
